Experimental findings from paper PMC7841778 (ACS Omega, 2021) are described below.

Test [1] has as its target T1, human pancreatic α-amylase (HPA) (Homo sapiens, UniProt P04746).
T1 sequence (P04746 16-511): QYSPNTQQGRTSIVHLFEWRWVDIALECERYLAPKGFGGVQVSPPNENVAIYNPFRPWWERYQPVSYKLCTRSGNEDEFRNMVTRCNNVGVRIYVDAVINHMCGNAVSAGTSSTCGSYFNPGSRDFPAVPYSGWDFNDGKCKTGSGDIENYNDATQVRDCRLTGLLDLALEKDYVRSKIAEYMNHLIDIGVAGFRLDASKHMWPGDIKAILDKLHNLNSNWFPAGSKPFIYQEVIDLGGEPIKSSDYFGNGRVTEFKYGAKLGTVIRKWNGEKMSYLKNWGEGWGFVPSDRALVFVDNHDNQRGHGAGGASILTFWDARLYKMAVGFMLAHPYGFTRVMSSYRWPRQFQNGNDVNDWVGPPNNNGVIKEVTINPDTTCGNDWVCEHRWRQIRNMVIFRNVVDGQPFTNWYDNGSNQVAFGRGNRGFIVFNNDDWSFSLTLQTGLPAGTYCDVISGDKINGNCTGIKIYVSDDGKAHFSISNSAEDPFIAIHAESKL
The experiment in a line: ITC. Format: binding.

Test [2] addresses T1, human pancreatic α-amylase (HPA). The experiment in a line: hydrolysis kinetics, KM. Format: biochemical. To be noted: read-out: KM ^b.

For the molecule `C=CCc1ccc(Oc2cc(CC=C)cc(OC)c2O)c(OC)c1` [DDEB, dehydrodieugenol B], the Kd (usually the constant that tells how readily two partners part at equilibrium) in test [1] is 1970 nM.
Consider `OC[C@H]1O[C@H](O[C@H]2[C@H](O)[C@@H](O)[C@@H](O[C@H]3[C@H](O)[C@@H](O)[C@@H](O[C@H]4[C@H](O)[C@@H](O)[C@@H](O[C@H]5[C@H](O)[C@@H](O)C(O)O[C@@H]5CO)O[C@@H]4CO)O[C@@H]3CO)O[C@@H]2CO)[C@H](O)[C@@H](O)[C@@H]1O` (some centres unmarked) [maltopentaose], for which the Km (usually the substrate concentration at which the rate is half of its maximum) in test [2] came out at 132 ± 6.62 µM.
